Experimental data reported in US5487990A (The General Hospital Corporation, priority 1992, dated 1996).

How the values were obtained:
[1] = target: T1, Acetyl-CoA Hydrolase from S. cerevisiae (Saccharomyces cerevisiae, UniProt P32316); test: Substrate specificity, colorimetric assay (DNTB, A412); format: biochemical; details: read-out: Relative Activity (%)
T1 sequence (P32316 1-526): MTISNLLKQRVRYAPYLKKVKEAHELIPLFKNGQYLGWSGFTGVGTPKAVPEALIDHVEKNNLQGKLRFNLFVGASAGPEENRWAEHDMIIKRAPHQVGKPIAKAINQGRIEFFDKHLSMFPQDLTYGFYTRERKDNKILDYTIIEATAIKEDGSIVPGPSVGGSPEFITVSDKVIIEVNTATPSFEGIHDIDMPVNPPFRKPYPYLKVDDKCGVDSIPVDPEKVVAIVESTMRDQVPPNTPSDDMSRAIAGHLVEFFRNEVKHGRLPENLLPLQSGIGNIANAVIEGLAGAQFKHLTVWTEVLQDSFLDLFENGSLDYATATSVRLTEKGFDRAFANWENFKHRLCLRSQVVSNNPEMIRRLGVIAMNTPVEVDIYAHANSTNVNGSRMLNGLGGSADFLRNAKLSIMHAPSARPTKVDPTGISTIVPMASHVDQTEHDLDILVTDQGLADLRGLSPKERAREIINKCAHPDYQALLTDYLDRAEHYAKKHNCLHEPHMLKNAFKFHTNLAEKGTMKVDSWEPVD

[2] = system: mitochondrial enzyme from hamster brown fat; details: cited from earlier work
[3] = target: T1, Acetyl-CoA Hydrolase from S. cerevisiae; test: biochemical
Experimental: The assay mixture was incubated at 30° C. for 0.30 s, 1 min, 2 min, 3 min, 4 min, and 5 min. The reaction was stopped by adding 20 μl of 10 M acetic acid. The sample was evaporated by N2 stream at 30° C. to dryness in a fume hood, dissolved in 100 μl H2 O, and transferred to a scintillation vial containing 10 ml Ready-Solv EP scintillation cocktail. The sample tube was washed twice with 100 μl H2 O, each wash was transferred to the scintillation vial, and the radioactivity was determined by scintillation counting for 1 min.
nucleotides and divalent cations in 100 mM potassium phosphate, pH 7.4.
The enzyme activity was determined under standard radioactive assay
conditions using ACTH (1-24) (N = 3), as described in the Examples.
acylCoA in 100 mM phosphate buffer, pH 7.4.

[4] = substrate: CC(=O)SCCNC(=O)CCNC(=O)[C@H](O)C(C)(C)COP(=O)(O)OP(=O)(O)OC[C@H]1O[C@@H](n2cnc3c(N)ncnc32)[C@H](O)[C@@H]1OP(=O)(O)O; test: purified protein, by the assay type; details: other: substrate acetyl-CoA; Lineweaver-Burk plot; pH 7.4; 30.0 °C
[5] = pH 7.4, read-out: Enzyme Activity (%)

CC(=O)SCCNC(=O)CCNC(=O)[C@H](O)C(C)(C)COP(=O)(O)OP(=O)(O)OC[C@H]1O[C@@H](n2cnc3c(N)ncnc32)[C@H](O)[C@@H]1OP(=O)(O)O [Acetyl-CoA, acetyl coenzyme A]
activity at 250 µM [1]: 100%
Km [2]: 51 µM
effect on yeast enzyme activity (in words) [3]: inhibited most effectively
remaining activity at 100 µM [3, 5]: 66%
remaining activity at 1000 µM [3, 5]: 28%
remaining activity at 5000 µM [3, 5]: 5%
Km ([3]; substrate acetyl-CoA, Lineweaver-Burk plot, read-out: apparent Km): 62 µM

B1: Acetyl-CoA Hydrolase from S. cerevisiae (Saccharomyces cerevisiae S288C) (protein)
chain: T1 sequence (P32316 1-526)
Km [4]: 62 µM
